Where two headings read alike, the source gives them in different places.
Experiments:
[1] = tested on: human neonatal epidermal keratinocyte (Cryo NHEK-Neo); test: UV-B irradiation-induced cell damage in keratinocytes, D-amino acids and cysteine, Alamar Blue (Example 4); assay type: cell-based; conditions: UV-B 25 mJ/cm^2; 100 μM before and after irradiation; without the amino acid about 500 to 600
Experimental: The cell employed was a commercially available human neonatal epidermal keratinocyte (Cryo NHEK-Neo, Sanko-Junyaku Co., Ltd.). […] Thereafter, it was cultured for 2 days in 2 mL of the ordinary medium 3 containing 100 μM D-alanine, D-serine, D-hydroxyproline, D-aspartic acid, D-cysteine or L-cysteine. As a control, the ordinary medium 3 containing PBS instead of the D-amino acid was added to the ordinary medium 3.
Thereafter, the fluorescent intensity was measured by the method described in Example 1.

[2] = tested on: human dermal fibroblast derived from a patient having xeroderma pigmentosum (Group A) (XP30S (SVT)); test: UV-A irradiation-induced cell damage in XP cells, pretreatment, Alamar Blue (Example 5); assay type: cell-based; conditions: UV-A 1 J/cm^2; pretreatment 0.1 μM; non-UV irradiating condition about 690, negative control about 630
Experimental: A human dermal fibroblast derived from a patient having xeroderma pigmentosum (Group […]), hereinafter referred to as “XP cell”) which was obtained from Japan Health Science Foundation was employed and cultured by the same method described in Example 3. […] The UV dose was measured using UV RADIOMETER […] Corporation).

[3] = tested on: human neonatal epidermal keratinocyte (Cryo NHEK-Neo); test: UV-B irradiation-induced cell damage in keratinocytes, Alamar Blue (Example 1); assay type: cell-based; conditions: UV-B 75 mJ/cm^2; 0.1 to 100 μM, pretreatment or posttreatment; non-irradiated about 22,000, irradiated 5,000 to 7,000
Experimental: The cell employed was a commercially available human neonatal epidermal keratinocyte (Cryo NHEK-Neo, Sanko-Junyaku Co., Ltd.).
Thereafter, the culture medium was supplemented with Alamar Blue (trade mark, Biosource International Inc.) at a final concentration of 10%, and its supernatant was examined for the fluorescent intensity 3 hours later with an excitation wavelength of 544 nm and a fluorescent wavelength of 590 nm as described by Ahmed S. A. et al. (J. Immunol. Method. 170, 211-224 (1994)) and in accordance with the manufacture's instruction.

[4] = tested on: human neonatal dermal fibroblast (Cryo NHDF-Neo); test: UV-A irradiation-induced cell damage in fibroblasts, pretreatment, Alamar Blue (Example 3); conditions: UV-A 22.5 J/cm^2; for fluorescent intensity: control about 1,100
[5] = tested on: human neonatal dermal fibroblast (Cryo NHDF-Neo); conditions: for fluorescent intensity / alleviation of the cell damage: 0.1 μM; for fluorescent intensity: Mean ± SD, N = 4-6; for alleviation of the cell damage: UV-A 12.5 J/cm^2 and 15 J/cm^2
Experimental: The cell employed was a commercially available human neonatal dermal fibroblast (Cryo NHDF-Neo, Sanko-Junyaku Co., Ltd.). This cell was inoculated at 2×10^5 cells/mL to a commercially available culture dish of 35 mm in diameter (BD FALCON 353001, Beckton Dickinson Japan), where it was cultured in a commercially available cell culture medium (D-MEM (1 g/L glucose, Wako Pure Chemical Industries, Ltd.) supplemented with 10% fetal bovine serum (hereinafter referred to as “ordinary medium 2”). This cell was cultured for about 24 hours in a 5% CO2 and saturated water vapor atmosphere at 37° C.
Thereafter, the culture medium for culturing the cell described above was switched to 1 mL of a BSO medium containing a glutathione biosynthesis inhibitor BSO (L-buthionine-(S,R)-sulfoximine, Wako Pure Chemical Industries, Ltd.) at 1×10^−3%, where the culture was conducted for about 24 hours in a 5% CO2 and saturated water vapor atmosphere at 37° C. The BSO medium described above was prepared by a 200-fold dilution of a stock solution containing 0.2% BSO in ethyl alcohol with the ordinary medium 2 described above.
[…] was dissolved in a distilled water at 2×10^−3%, and the resultant solution was subjected to a 200-fold dilution (final concentration: 1×10^−5%) with a phosphate buffer solution PBS containing calcium ion and magnesium ion (PBS+) to obtain a medium (hereinafter referred to as “UV irradiation medium”), which was warmed preliminarily before use.
Before UV-A irradiation, the culture medium was replaced with 1 mL of the UV irradiation medium described above. […] The UV dose was measured using UV RADIOMETER UVR-3036/S (Topcon Corporation).
After UV irradiation, the cell was returned to the ordinary medium 2 described above where it was cultured in a 5% CO2 and saturated water vapor atmosphere at 37° C. for 21 hours. For examining the effect of adding proline after UV irradiation (hereinafter referred to as “posttreatment”), this 21-hour cultured medium was supplemented with 0.01 to 1000 μM L- or D-proline.
Thereafter, the fluorescent intensity was measured by a method described in Example 1.

[6] = UV irradiation amount 0 J/cm^2, control 12380 ± 21
[7] = UV-A 12.5 J/cm^2, control 2503 ± 629
[8] = UV-A 15 J/cm^2, control 1018 ± 89

C[C@@H](N)C(=O)O [D-alanine]
fluorescent intensity of Alamar Blue [1]: about 570

N[C@H](CC(=O)O)C(=O)O [D-aspartic acid]
fluorescent intensity of Alamar Blue [1]: about 600

N[C@H](CS)C(=O)O [D-cysteine]
fluorescent intensity of Alamar Blue [1]: about 700 | fluorescent intensity [2]: about 638

N[C@H](CCC(=O)O)C(=O)O [D-glutamic acid]
cell damage alleviating effect (fluorescent intensity of Alamar Blue) [3]: the cell damage was alleviated | fluorescent intensity [2]: about 675 | fluorescent intensity ([4]; pretreatment 1 μM): about 1,700

O=C(O)[C@H]1C[C@H](O)CN1 [D-hydroxyproline]
fluorescent intensity of Alamar Blue [1]: about 550

O=C(O)[C@H]1CCCN1 [D-proline]
fluorescent intensity [5, 6]: 12270 ± 68 ^ | fluorescent intensity [5, 7]: 4615 ± 1218 *^1 | alleviation of the cell damage [5]: the cell damage was alleviated | fluorescent intensity [5, 8]: 2365 ± 648 *^2 | cell damage alleviating effect (fluorescent intensity of Alamar Blue) ([5]; UV-A 15 J/cm^2 and 22.5 J/cm^2, posttreatment, non-irradiated about 12,000, irradiated about 5,000 and about 3,000): the cell damage was alleviated | fluorescent intensity [2]: about 664 | fluorescent intensity ([4]; pretreatment 0.1 μM): about 1,750

N[C@H](CO)C(=O)O [D-serine]
fluorescent intensity of Alamar Blue [1]: about 490

N[C@@H](CS)C(=O)O [L-cysteine]
fluorescent intensity of Alamar Blue [1]: about 700 | fluorescent intensity [2]: about 688

N[C@@H](CCC(=O)O)C(=O)O [L-glutamic acid]
cell damage alleviating effect (fluorescent intensity of Alamar Blue) [3]: No cell damage alleviating effect was observed | fluorescent intensity [2]: about 658 | cell damage alleviating effect ([4]; pretreatment 1 μM): no cell damage alleviating effect was observed | fluorescent intensity ([4]; pretreatment 1 μM): about 1,100

O=C(O)[C@@H]1CCCN1 [L-proline, reference compound]
fluorescent intensity [5, 6]: 12211 ± 77 | fluorescent intensity [5, 7]: 2877 ± 834 | alleviation of the cell damage [5]: Almost no alleviation of the cell damage | fluorescent intensity [5, 8]: 1552 ± 320 | alleviating effect on ultraviolet irradiation-induced damage ([5]; summary statement referring to the Examples): no alleviating effect on ultraviolet irradiation-induced damage | fluorescent intensity [2]: about 583

— patent publication US8735442B2, “Composition for alleviating ultraviolet radiation-induced damage” (priority 2009, dated 2014)
